Results published in patent US20230357219A1, “PREPARATION OF BIARYL RING-LINKED AROMATIC HETEROCYCLIC DERIVATIVE AS IMMUNOMODULATOR AND USE THEREOF” (SHANGHAI LONGWOOD BIOPHARMACEUTICALS CO., LTD., priority 2020, published 2023).

Biological target: PD-1/PD-L1 (Homo sapiens (Human), UniProt Q9NZQ7)
Test: PD-1/PD-L1 Homogeneous Time-Resolved Fluorescence (HTRF) Binding Assay
Conditions: ~3 nM of PD1, 10 nM of PD-L1; 25° C., PBS buffer (pH 7.4)
Protocol: Assays were performed in standard black 384-well polystyrene plates and a final volume was 20 µL. The inhibitor was first serially diluted with DMSO and added to the wells of the plate, then other reaction components were added. The final concentration of DMSO in the assay was 1%. Assays were performed at 25° C. in PBS buffer (pH 7.4) containing 0.05% Tween-20 and 0.1% BSA. Recombinant human PD-L1 protein (19-238) with a His-tagged at the C-terminus was purchased from AcroBiosystems (PD1-H5229). Recombinant human PD-1 protein (25-167) with an Fc tag at the C-terminus was also purchased from AcroBiosystems (PD1-H5257). The PD-L1 and PD-1 proteins were diluted in assay buffer and then 0.1 µl of the solution was extracted and added to the wells of the plate. Plates were centrifuged and proteins and inhibitors were preincubated for 40 minutes. After incubation, 0.1 µl of HTRF detection buffer containing europium […] labeled anti-human IgG (PerkinElmer-AD0212), Fc-specific and anti-His SureLight®-Allophycocyanin (APC, PerkinElmer-AD0059H) conjugated antibodies was added. After centrifugation, the plates were incubated at 25° C. for 60 minutes. Data was read in a PHERAstar FS plate reader (665 nm/620 nm ratio). Final concentrations in the assay were ~3 nM of PD1, 10 nM of PD-L1, 1 nM of europium anti-human IgG, and 20 nM of anti-His-allophycocyanin. Activity data were fitted using GraphPad Prism 5.0 software to derive IC50 values for inhibitors. The IC50 values of the compounds exemplified in the examples are expressed in the following manner: IC50: + = ≤100 nM; ++ =100 nM-1000 nM; +++ = >1000 nM. The data of the example compounds obtained by PD-1/PD-L1 homogeneous time-resolved fluorescence (HTRF) binding assay described in Example A were provided in Table 1.

Sequence of PD-1/PD-L1 (Q9NZQ7 19-238): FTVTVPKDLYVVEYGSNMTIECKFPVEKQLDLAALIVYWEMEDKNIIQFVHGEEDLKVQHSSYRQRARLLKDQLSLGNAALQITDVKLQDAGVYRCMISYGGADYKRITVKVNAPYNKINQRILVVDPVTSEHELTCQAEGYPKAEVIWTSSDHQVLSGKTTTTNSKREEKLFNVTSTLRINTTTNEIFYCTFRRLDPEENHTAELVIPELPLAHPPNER

`COc1nc(O[C@@H]2CCc3c(-c4cccc(Nc5nccc6cc(CN7CC[C@@H](O)C7)cnc56)c4C)cccc32)ccc1CN1CC[C@@H](C(=O)O)C1` [Compound 3] was tested, and the IC50 was ≤ 100 nM.
With `COc1nc(O[C@@H]2CCc3c(-c4cccc(Nc5nccc6cc(CN7CC[C@@H](C(=O)O)C7)cnc56)c4C)cccc32)cnc1CN1CC[C@@H](O)C1` [Compound 4] the IC50 was ≤ 100 nM.
In the case of `COc1nc(O[C@@H]2CCc3c(-c4cccc(Nc5nccc6cc(CN7CC[C@@H](O)C7)cnc56)c4C)cccc32)cnc1CN1CC[C@@H](C(=O)O)C1` [Compound 5], the IC50 is reported as ≤ 100 nM.
For `COc1nc(O[C@@H]2CCc3c(-c4cccc(-c5nc6cc(CN7CC[C@@H](C(=O)O)C7)cc(C#N)c6o5)c4C)cccc32)ccc1CN1CC[C@@H](O)C1` [Compound 6], the IC50 was ≤ 100 nM.
In the case of `COc1nc(O[C@@H]2CCc3c(-c4cccc(Nc5nccc6cc(CN7CC[C@@H](C(=O)O)C7)cnc56)c4C)cccc32)ccc1CN1CC[C@@H](O)C1` [Compound 7], the IC50 is reported as ≤ 100 nM.
In the case of `COc1nc(O[C@@H]2CCc3c(-c4cccc(-c5nc6cc(CN7CC[C@@H](C(=O)O)C7)cc(C#N)c6o5)c4C)cccc32)cnc1CN1CC[C@@H](O)C1` [Compound 8], the IC50 is reported as ≤ 100 nM.
In the case of `COc1nc(O[C@@H]2CCc3c(-c4cccc(-c5nc6cc(CN7CC[C@@H](O)C7)cc(C#N)c6o5)c4C)cccc32)cnc1CN1CC[C@@H](C(=O)O)C1` [Compound 9], the IC50 is reported as ≤ 100 nM.
`COc1nc(O[C@@H]2CCc3c(-c4cccc(Nc5nccc6cc(CN7CC[C@@H](C(=O)O)C7)cnc56)c4Cl)cccc32)ccc1CN1CC[C@@H](O)C1` [Compound 10] was tested, and the IC50 was ≤ 100 nM.
`COc1nc(O[C@@H]2CCc3c(-c4cccc(Nc5nccc6cc(CN7CC[C@@H](C(=O)O)C7)cnc56)c4Cl)cccc32)cnc1CN1CC[C@@H](O)C1` [Compound 12] was tested, and the IC50 was ≤ 100 nM.
`COc1nc(O[C@@H]2CCc3c(-c4cccc(Nc5nccc6cc(CN7CC[C@H](O)C7)cnc56)c4Cl)cccc32)cnc1CN1CC[C@@H](C(=O)O)C1` [Compound 13] was tested, and the IC50 was ≤ 100 nM.
